Experiment: xn = mol fraction of the nth substance listed
Details: 101 kPa, Liquid; for viscosity: Capillary tube (Ostwald / Ubbelohde) method

CCOC(=O)OCC [diethyl carbonate] + CC(C)O
Details | mass density [kg/m3] | viscosity [mPa·s]
293.15 K, x1 = 0.1015 | 812.95 | 1.586
293.15 K, x1 = 0.1993 | 837.12 | 1.252
293.15 K, x1 = 0.3027 | 861.52 | 1.073
293.15 K, x1 = 0.4029 | 880.88 | 0.946
293.15 K, x1 = 0.5018 | 901.57 | 0.865
293.15 K, x1 = 0.5905 | 914.48 | 0.827
293.15 K, x1 = 0.7267 | 936.22 | 0.791
293.15 K, x1 = 0.8053 | 947.93 | 0.781
293.15 K, x1 = 0.8494 | 954.32 | 0.782
293.15 K, x1 = 1 | 975 | 0.8
298.15 K, x1 = 0.1015 | 808.12 | 1.393
298.15 K, x1 = 0.1993 | 831.98 | 1.119
298.15 K, x1 = 0.3027 | 855.03 | 0.964
298.15 K, x1 = 0.4029 | 875.34 | 0.86
298.15 K, x1 = 0.5018 | 893.55 | 0.791
298.15 K, x1 = 0.5905 | 908.68 | 0.76
298.15 K, x1 = 0.7267 | 930.3 | 0.731
298.15 K, x1 = 0.8053 | 941.94 | 0.726
298.15 K, x1 = 0.8494 | 948.31 | 0.726
298.15 K, x1 = 1 | 968.97 | 0.746
303.15 K, x1 = 0.1015 | 803.27 | 1.223
303.15 K, x1 = 0.1993 | 826.84 | 0.996
303.15 K, x1 = 0.3027 | 849.57 | 0.867
303.15 K, x1 = 0.4029 | 869.48 | 0.782
303.15 K, x1 = 0.5018 | 887.62 | 0.726
303.15 K, x1 = 0.5905 | 902.71 | 0.7
303.15 K, x1 = 0.7267 | 924.09 | 0.677
303.15 K, x1 = 0.8053 | 935.6 | 0.674
303.15 K, x1 = 0.8494 | 941.89 | 0.676
303.15 K, x1 = 1 | 962.39 | 0.695
313.15 K, x1 = 0.1015 | 793.12 | 0.964
313.15 K, x1 = 0.1993 | 816.46 | 0.806
313.15 K, x1 = 0.3027 | 839.13 | 0.716
313.15 K, x1 = 0.4029 | 859.2 | 0.657
313.15 K, x1 = 0.5018 | 877.18 | 0.618
313.15 K, x1 = 0.5905 | 892.18 | 0.601
313.15 K, x1 = 0.7267 | 913.63 | 0.588
313.15 K, x1 = 0.8053 | 925.25 | 0.588
313.15 K, x1 = 0.8494 | 931.59 | 0.59
313.15 K, x1 = 1 | 952.32 | 0.61
323.15 K, x1 = 0.1015 | 781.71 | 0.78
323.15 K, x1 = 0.1993 | 804.58 | 0.668
323.15 K, x1 = 0.3027 | 826.95 | 0.604
323.15 K, x1 = 0.4029 | 846.73 | 0.562
323.15 K, x1 = 0.5018 | 864.62 | 0.535
323.15 K, x1 = 0.5905 | 879.49 | 0.524
323.15 K, x1 = 0.7267 | 900.94 | 0.517
323.15 K, x1 = 0.8053 | 912.58 | 0.519
323.15 K, x1 = 0.8494 | 918.93 | 0.521
323.15 K, x1 = 1 | 939.78 | 0.541
333.15 K, x1 = 0.1015 | 771.12 | 0.637
333.15 K, x1 = 0.1993 | 793.64 | 0.559
333.15 K, x1 = 0.3027 | 815.77 | 0.515
333.15 K, x1 = 0.4029 | 835.41 | 0.485
333.15 K, x1 = 0.5018 | 853.29 | 0.467
333.15 K, x1 = 0.5905 | 868.1 | 0.46
333.15 K, x1 = 0.7267 | 889.56 | 0.458
333.15 K, x1 = 0.8053 | 901.29 | 0.461
333.15 K, x1 = 0.8494 | 907.67 | 0.464
333.15 K, x1 = 1 | 928.69 | 0.483
343.15 K, x1 = 0.1015 | 760.13 | 0.523
343.15 K, x1 = 0.1993 | 782.3 | 0.47
343.15 K, x1 = 0.3027 | 804.17 | 0.44
343.15 K, x1 = 0.4029 | 823.53 | 0.421
343.15 K, x1 = 0.5018 | 841.14 | 0.41
343.15 K, x1 = 0.5905 | 855.92 | 0.407
343.15 K, x1 = 0.7267 | 877.3 | 0.409
343.15 K, x1 = 0.8053 | 888.96 | 0.413
343.15 K, x1 = 0.8494 | 895.36 | 0.417
343.15 K, x1 = 1 | 916.33 | 0.435

CCOC(=O)OCC [diethyl carbonate] + CO
Details | mass density [kg/m3] | viscosity [mPa·s]
293.15 K, x1 = 0.1045 | 839.93 | 0.599
293.15 K, x1 = 0.2128 | 874.69 | 0.622
293.15 K, x1 = 0.2835 | 892.08 | 0.634
293.15 K, x1 = 0.4025 | 915.12 | 0.655
293.15 K, x1 = 0.5161 | 932.04 | 0.679
293.15 K, x1 = 0.6057 | 942.83 | 0.7
293.15 K, x1 = 0.7015 | 952.67 | 0.723
293.15 K, x1 = 0.8 | 961.18 | 0.747
293.15 K, x1 = 0.8845 | 967.44 | 0.772
293.15 K, x1 = 1 | 975 | 0.801
298.15 K, x1 = 0.1045 | 834.64 | 0.567
298.15 K, x1 = 0.2128 | 869.33 | 0.588
298.15 K, x1 = 0.2835 | 886.65 | 0.598
298.15 K, x1 = 0.4025 | 909.56 | 0.616
298.15 K, x1 = 0.5161 | 926.35 | 0.637
298.15 K, x1 = 0.6057 | 937.11 | 0.656
298.15 K, x1 = 0.7015 | 946.89 | 0.677
298.15 K, x1 = 0.8 | 955.37 | 0.696
298.15 K, x1 = 0.8845 | 961.65 | 0.715
298.15 K, x1 = 1 | 968.97 | 0.746
303.15 K, x1 = 0.1045 | 829.8 | 0.527
303.15 K, x1 = 0.2128 | 864.12 | 0.546
303.15 K, x1 = 0.2835 | 881.42 | 0.556
303.15 K, x1 = 0.4025 | 904.25 | 0.573
303.15 K, x1 = 0.5161 | 921 | 0.593
303.15 K, x1 = 0.6057 | 931.74 | 0.611
303.15 K, x1 = 0.7015 | 941.49 | 0.63
303.15 K, x1 = 0.8 | 949.97 | 0.651
303.15 K, x1 = 0.8845 | 956.23 | 0.671
303.15 K, x1 = 1 | 962.39 | 0.695
313.15 K, x1 = 0.1045 | 819.68 | 0.462
313.15 K, x1 = 0.2128 | 853.64 | 0.48
313.15 K, x1 = 0.2835 | 870.71 | 0.49
313.15 K, x1 = 0.4025 | 893.3 | 0.503
313.15 K, x1 = 0.5161 | 909.94 | 0.521
313.15 K, x1 = 0.6057 | 920.59 | 0.537
313.15 K, x1 = 0.7015 | 930.26 | 0.556
313.15 K, x1 = 0.8 | 938.67 | 0.572
313.15 K, x1 = 0.8845 | 944.93 | 0.587
313.15 K, x1 = 1 | 952.32 | 0.61
323.15 K, x1 = 0.1045 | 809.45 | 0.408
323.15 K, x1 = 0.2128 | 843 | 0.424
323.15 K, x1 = 0.2835 | 859.86 | 0.432
323.15 K, x1 = 0.4025 | 882.25 | 0.444
323.15 K, x1 = 0.5161 | 898.72 | 0.461
323.15 K, x1 = 0.6057 | 909.28 | 0.477
323.15 K, x1 = 0.7015 | 918.88 | 0.493
323.15 K, x1 = 0.8 | 927.24 | 0.507
323.15 K, x1 = 0.8845 | 933.43 | 0.523
323.15 K, x1 = 1 | 939.78 | 0.541
333.15 K, x1 = 0.1045 | 796.31 | 0.363
333.15 K, x1 = 0.2128 | 830.09 | 0.376
333.15 K, x1 = 0.2835 | 847.11 | 0.384
333.15 K, x1 = 0.4025 | 869.76 | 0.397
333.15 K, x1 = 0.5161 | 886.44 | 0.41
333.15 K, x1 = 0.6057 | 897.15 | 0.426
333.15 K, x1 = 0.7015 | 906.9 | 0.441
333.15 K, x1 = 0.8 | 915.39 | 0.454
333.15 K, x1 = 0.8845 | 921.71 | 0.466
333.15 K, x1 = 1 | 928.69 | 0.483
